Source: US7345070B2, “Peroxisome proliferator activated receptor agonists” (Eli Lilly and Company, priority 2000, dated 2008)

Assays:
[1] = molecular target: T1, huPPARγ (Homo sapiens, UniProt P37231); assay: DNA-dependent binding (ABCD binding) using SPA technology, huPPARγ; settings: SPA displacement of tritium-labeled PPARγ agonist radioligand
T1 sequence (P37231 1-505): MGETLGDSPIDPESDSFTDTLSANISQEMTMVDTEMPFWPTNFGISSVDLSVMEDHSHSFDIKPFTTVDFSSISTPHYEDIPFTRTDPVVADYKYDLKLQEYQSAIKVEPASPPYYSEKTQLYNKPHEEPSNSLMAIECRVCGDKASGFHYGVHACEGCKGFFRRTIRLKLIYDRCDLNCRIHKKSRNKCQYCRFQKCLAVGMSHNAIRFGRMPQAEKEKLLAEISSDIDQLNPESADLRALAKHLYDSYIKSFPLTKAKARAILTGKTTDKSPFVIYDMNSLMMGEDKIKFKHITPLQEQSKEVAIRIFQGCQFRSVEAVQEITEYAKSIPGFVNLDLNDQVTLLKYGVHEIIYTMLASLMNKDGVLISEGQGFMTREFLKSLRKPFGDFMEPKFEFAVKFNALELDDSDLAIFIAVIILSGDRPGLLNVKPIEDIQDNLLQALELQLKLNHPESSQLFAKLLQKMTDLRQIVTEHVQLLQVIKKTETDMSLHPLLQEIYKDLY
T1 sequence (P19793 1-462 partner): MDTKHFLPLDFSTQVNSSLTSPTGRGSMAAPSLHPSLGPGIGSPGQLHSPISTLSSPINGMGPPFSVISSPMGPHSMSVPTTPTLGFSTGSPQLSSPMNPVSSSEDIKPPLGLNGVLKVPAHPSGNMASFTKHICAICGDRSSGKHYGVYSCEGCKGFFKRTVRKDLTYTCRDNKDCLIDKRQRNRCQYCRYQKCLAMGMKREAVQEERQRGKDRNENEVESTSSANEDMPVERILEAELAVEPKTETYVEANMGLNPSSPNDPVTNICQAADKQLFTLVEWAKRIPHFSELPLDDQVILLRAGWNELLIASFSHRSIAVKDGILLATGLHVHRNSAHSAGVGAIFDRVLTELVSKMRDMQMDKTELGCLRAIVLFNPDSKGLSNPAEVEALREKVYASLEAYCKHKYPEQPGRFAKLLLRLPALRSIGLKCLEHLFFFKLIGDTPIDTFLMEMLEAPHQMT
Protocol: (§1) DNA-dependent binding (ABCD binding) was carried out using SPA technology with PPAR receptors. Tritium-labeled PPARα and PPARγ agonists were used as radioligands for generating displacement curves and IC50 values with compounds of the invention. Cotransfection assays were carried out in CV-1 cells. The reporter plasmid contained an acylCoA oxidase (AOX) PPRE and TK promoter upstream of the luciferase reporter cDNA. Appropriate PPARs and RXRα were constitutively expressed using plasmids containing the CMV promoter. […] In order to eliminate such interference, a GAL4 chimeric system was used in which the DNA binding domain of the transfected PPAR was replaced by that of GAL4, and the GAL4 response element was utilized in place of the AOX PPRE. Cotransfection efficacy was determined relative to PPARα agonist and PPARγ agonist reference molecules. Efficacies were determined by computer fit to a concentration-response curve, or in some cases at a single high concentration of agonist (10 μM). For binding or cotransfection studies with receptors other than PPARs, similar assays were carried out using appropriate ligands, receptors, reporter constructs, etc., for that particular receptor.
(§2) These studies were carried out to evaluate the ability of compounds of the invention to bind to and/or activate various nuclear transcription factors, particularly huPPARα (“hu” indicates “human”) and huPPARγ. These studies provide in vitro data concerning efficacy and selectivity of compounds of the invention. Furthermore, binding and cotransfection data for compounds of the invention were compared with corresponding data for marketed compounds that act on either huPPARα or huPPARγ.

[2] = tested on: HuapoAI transgenic mice; assay: Evaluation of triglyceride and cholesterol level in HuapoAI transgenic mice; type: in vivo; settings: Mus musculus, 168 h, human apoAI transgenic mice, 30 mg/kg oral gavage daily for 7 days; for change in vivo at 30 mg/kg: FPLC area under the curve, over mice receiving vehicle, read-out: % HDLc Increase; for inhibition in vivo at 30 mg/kg: serum 3 h after dosing, read-out: Reduction in Triglyceride Serum Level
Summary of the method: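 Mice got daily oral gavage doses for 7 days, and blood was drawn by cardiac puncture under isoflurane 3 h after the final dose. Serum triglycerides and total cholesterol were measured colorimetrically against standard curves. VLDL, LDL and HDL cholesterol came from Superose 6 FPLC in PBS-EDTA with in-line detection, as peak areas.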

[3] = molecular target: T2, huPPARα (Homo sapiens, UniProt Q07869); assay: DNA-dependent binding (ABCD binding) using SPA technology, huPPARα; settings: SPA displacement of tritium-labeled PPARα agonist radioligand
T2 sequence (Q07869 1-468): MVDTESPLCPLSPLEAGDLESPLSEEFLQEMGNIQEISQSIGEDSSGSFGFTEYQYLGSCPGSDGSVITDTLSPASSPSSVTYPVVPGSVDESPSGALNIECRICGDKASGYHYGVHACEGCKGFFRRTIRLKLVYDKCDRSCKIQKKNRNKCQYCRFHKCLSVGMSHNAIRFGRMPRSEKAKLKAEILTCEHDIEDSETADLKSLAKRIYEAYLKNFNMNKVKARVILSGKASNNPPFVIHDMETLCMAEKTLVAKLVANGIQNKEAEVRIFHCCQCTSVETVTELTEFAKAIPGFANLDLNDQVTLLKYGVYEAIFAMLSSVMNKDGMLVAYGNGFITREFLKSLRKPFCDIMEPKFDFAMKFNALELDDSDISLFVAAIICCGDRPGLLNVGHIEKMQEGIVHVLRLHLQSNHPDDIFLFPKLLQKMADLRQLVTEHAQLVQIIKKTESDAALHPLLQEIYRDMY
T2 sequence (P19793 1-462 partner): T1 sequence (P19793 1-462 partner)
Protocol: as §1, §2

Row | IC50 [1] [µM] | IC50 [3] [µM] | Compound | change in vivo at 30 mg/kg [2] [%] | inhibition in vivo at 30 mg/kg [2] [%]
1 | 0.109 | 0.066 | Cc1ccc(OC(C)(Cc2ccc(OCCc3nc(C4CCCCC4)oc3C)cc2)C(=O)O)cc1 (stereo not drawn) [Example 41, 3-{4-[2-(2-Cyclohexyl-5-methyl-oxazol-4-yl)-ethoxy]-phenyl}-2-methyl-2-p-tolyloxy-propionic acid] | 96 | 57.8
2 | 0.159 | 0.157 | Cc1oc(C2CCCCC2)nc1CCOc1ccc(CC(C)(Oc2ccc(OC(F)(F)F)cc2)C(=O)O)cc1 (stereo not drawn) [Example 44, 3-{4-[2-(2-Cyclohexyl-5-methyl-oxazol-4-yl)-ethoxy]-phenyl}-2-methyl-2-(4-trifluoromethoxy-phenoxy)-propionic acid] | 151 | –
3 | 0.08 | 0.064 | Cc1oc(-c2cccs2)nc1CCOc1ccc(CC(C)(Oc2ccc(C(F)(F)F)cc2)C(=O)O)cc1 (stereo not drawn) [Example 51, 2-Methyl-3-{4-[2-(5-methyl-2-thiophen-2-yl-oxazol-4-yl)-ethoxy]-phenyl}-2-(4-trifluoromethyl-phenoxy)-propionic acid] | 122 | 72.8
4 | 0.076 | 0.062 | Cc1oc(C2CCCCC2)nc1CCOc1ccc(CC(C)(Oc2ccc(C(F)(F)F)cc2)C(=O)O)cc1 (stereo not drawn) [Example 52, 3-{4-[2-(2-Cyclohexyl-5-methyl-oxazol-4-yl)-ethoxy]-phenyl}-2-methyl-2-(4-trifluoromethyl-phenoxy)-propionic acid] | 185 | 75.9
5 | 0.066 | 0.06 | Cc1oc(C2CCCCC2)nc1CCOc1ccc(CC(C)(Oc2ccc(F)c(F)c2)C(=O)O)cc1 (stereo not drawn) [Example 58, 3-{4-[2-(2-Cyclohexyl-5-methyl-oxazol-4-yl)-ethoxy]-phenyl}-2-(3,4-difluoro-phenoxy)-2-methyl-propionic acid] | 74 | 26.5
6 | 0.084 | 0.064 | Cc1cccc(OC(C)(Cc2ccc(OCCc3nc(-c4cccs4)oc3C)cc2)C(=O)O)c1 (stereo not drawn) [Example 61, 2-Methyl-3-{4-[2-(5-methyl-2-thiophen-2-yl-oxazol-4-yl)-ethoxy]-phenyl}-2-m-tolyloxy-propionic acid] | 72 | 17.6
7 | 0.079 | 0.058 | Cc1cccc(OC(C)(Cc2ccc(OCCc3nc(C4CCCCC4)oc3C)cc2)C(=O)O)c1 (stereo not drawn) [Example 62, 3-{4-[2-(2-Cyclohexyl-5-methyl-oxazol-4-yl)-ethoxy]-phenyl}-2-methyl-2-m-tolyloxy-propionic acid] | 72 | 2.5
8 | 0.112 | 0.067 | Cc1oc(-c2cccs2)nc1CCOc1ccc(CC(C)(Oc2ccc(F)cc2)C(=O)O)cc1 (stereo not drawn) [Example 64, 2-(4-Fluoro-phenoxy)-2-methyl-3-{4-[2-(5-methyl-2-thiophen-2-yl-oxazol-4-yl)-ethoxy]-phenyl}-propionic acid] | 66 | 43
9 | 0.082 | 0.071 | Cc1oc(C2CCCCC2)nc1CCOc1ccc(CC(C)(Oc2ccc(F)cc2)C(=O)O)cc1 (stereo not drawn) [Example 65, 3-{4-[2-(2-Cyclohexyl-5-methyl-oxazol-4-yl)-ethoxy]-phenyl}-2-(4-fluoro-phenoxy)-2-methyl-propionic acid] | 75 | 54
10 | 0.065 | 0.061 | Cc1oc(C2(C)CCCCC2)nc1CCOc1ccc(C[C@](C)(Oc2ccc(F)cc2)C(=O)O)cc1 [Example 67, (S)-2-(4-Fluoro-phenoxy)-2-methyl-3-(4-{2-[5-methyl-2-(1-methyl-cyclohexyl)-oxazol-4-yl]-ethoxy}-phenyl)-propionic acid] | 76 | 67.8
